This is an account of results in patent US20250163104A1, “MACROCYCLIC IMMUNOMODULATORS” (priority 2021, published 2025).

The structures appear in SMILES notation. pIC50: −log10 of the molar value. Where a SMILES comes first, the peptide text is derived from it. Bridges are numbered along the chain shown (N, C = ends). [ ]: non-standard residue; d: D form. The star is where a group is joined. Ala(morpholin-4-yl) = N[C@@H](CN1CCOCC1)C(=O)O; Phe(4-COOH) = N[C@@H](Cc1ccc(C(=O)O)cc1)C(=O)O; Bip = N[C@@H](Cc1ccc(-c2ccccc2)cc1)C(=O)O; Phe(3-Me) = Cc1cccc(C[C@H](N)C(=O)O)c1; Cha = N[C@@H](CC1CCCCC1)C(=O)O; Carboxymethyl = O=C(O)C*; Orn = NCCC[C@H](N)C(=O)O; Pra = C#CC[C@H](N)C(=O)O; Dab = NCC[C@H](N)C(=O)O; Nva = CCC[C@H](N)C(=O)O; Dap = NC[C@H](N)C(=O)O; Propargyl = C#CC*

T1 sequence (Q15116 25-288): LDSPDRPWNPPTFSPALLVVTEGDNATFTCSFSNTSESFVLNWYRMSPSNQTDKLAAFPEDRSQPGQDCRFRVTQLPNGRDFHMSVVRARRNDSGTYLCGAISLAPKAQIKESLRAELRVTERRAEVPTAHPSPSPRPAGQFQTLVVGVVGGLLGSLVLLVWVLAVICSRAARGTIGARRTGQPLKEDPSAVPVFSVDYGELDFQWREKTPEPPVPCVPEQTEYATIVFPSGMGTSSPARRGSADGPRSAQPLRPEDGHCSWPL

The assay concerns the target T1, human PD-1 / PD-L1-Ig binding on Jurkat cell line over-expressing human PD-1 (Jurkat-PD-1) (Homo sapiens, UniProt Q15116).
T1 construct: expressed in transfected cells; host or cells: Jurkat
As to the kind of experiment: Jurkat-PD-1 Cell Binding High-Content Screening Assay (CBA). The assay is classed as cell-based. To be noted: Jurkat-PD-1 cells, PE-labeled PD-L1-Ig 20 nM final; read-out: Jurkat HPD1_PDL1 IC50. The procedure, abridged:
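Read-out: high-content imaging of PE-tagged PD-L1-Ig bound to Jurkat cells overexpressing human PD-1, after fixation with 4% paraformaldehyde and Hoechst 33342 nuclear staining. Ligand was used at 20 nM final for 1 hour, after a 2 h compound exposure at 37° C in serum-containing DMEM.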
Regarding `C#CC[C@H](NC(=O)[C@H](CCN)NC(=O)[C@@H]1CSCC(=O)N[C@@H](CCN)C(=O)N[C@@H](Cc2ccc(OCC(=O)O)cc2)C(=O)N[C@@H](CC(=O)O)C(=O)N[C@@H](Cc2cccc(C)c2)C(=O)N[C@@H](Cc2ccc(C(=O)O)cc2)C(=O)N[C@@H](Cc2ccc(-c3ccccc3)cc2)C(=O)N[C@@H](Cc2ccc(C(=O)O)cc2)C(=O)N[C@@H](CCCN)C(=O)N[C@H](CC(C)C)C(=O)N[C@@H](CCN)C(=O)N[C@@H](CC2CCCCC2)C(=O)N[C@@H](C(C)C)C(=O)N[C@@H](CCC(=O)O)C(=O)N1)C(=O)O` [Compound 1823] ({CH2CO}-[Dab]Y(Carboxymethyl)D[Phe(3-Me)][Phe(4-COOH)][Bip][Phe(4-COOH)][Orn][dL][Dab][Cha]VEC[Dab][Pra]-OH; thioether N-14), the pIC50 (commonly the negative decadic logarithm of the IC50, by convention in mol/L) was 8.00. The result for `C#CC[C@H](NC(=O)[C@H](CCN)NC(=O)[C@@H]1CSCC(=O)N[C@@H]([C@@H](C)O)C(=O)N[C@@H](Cc2ccc(OCC(=O)O)cc2)C(=O)N[C@@H](CC(=O)O)C(=O)N[C@@H](Cc2cccc(C)c2)C(=O)N[C@@H](Cc2ccc(C(=O)O)cc2)C(=O)N[C@@H](Cc2ccc(-c3ccccc3)cc2)C(=O)N[C@@H](Cc2ccc(C(=O)O)cc2)C(=O)N[C@@H](CCCN)C(=O)N[C@H](CC(C)C)C(=O)N[C@@H](CCN)C(=O)N[C@@H](CC2CCCCC2)C(=O)N[C@@H](C(C)C)C(=O)N[C@@H](CCC(=O)O)C(=O)N1)C(=O)O` [Compound 1824] ({CH2CO}-TY(Carboxymethyl)D[Phe(3-Me)][Phe(4-COOH)][Bip][Phe(4-COOH)][Orn][dL][Dab][Cha]VEC[Dab][Pra]-OH; thioether N-14) reads 8.03.

On to `C#CC[C@H](NC(=O)[C@H](CCN)NC(=O)[C@@H]1CSCC(=O)N[C@@H](CN)C(=O)N[C@@H](Cc2ccc(OCC(=O)O)cc2)C(=O)N[C@@H](CC(=O)O)C(=O)N[C@@H](Cc2cccc(C)c2)C(=O)N[C@@H](Cc2ccc(C(=O)O)cc2)C(=O)N[C@@H](Cc2ccc(-c3ccccc3)cc2)C(=O)N[C@@H](Cc2ccc(C(=O)O)cc2)C(=O)N[C@@H](CCCN)C(=O)N[C@H](CC(C)C)C(=O)N[C@@H](CCN)C(=O)N[C@@H](CC2CCCCC2)C(=O)N[C@@H](C(C)C)C(=O)N[C@@H](CCC(=O)O)C(=O)N1)C(=O)O` [Compound 1825] ({CH2CO}-[Dap]Y(Carboxymethyl)D[Phe(3-Me)][Phe(4-COOH)][Bip][Phe(4-COOH)][Orn][dL][Dab][Cha]VEC[Dab][Pra]-OH; thioether N-14), for which the pIC50 was 6.74. Then `C#CC[C@H](NC(=O)[C@H](CCN)NC(=O)[C@@H]1CSCC(=O)N[C@@H](CCC)C(=O)N[C@@H](Cc2ccc(OCC(=O)O)cc2)C(=O)N[C@@H](CC(=O)O)C(=O)N[C@@H](Cc2cccc(C)c2)C(=O)N[C@@H](Cc2ccc(OCC(=O)O)cc2)C(=O)N[C@@H](Cc2ccc(-c3ccccc3)cc2)C(=O)N[C@@H](Cc2ccc(OCC(=O)O)cc2)C(=O)N[C@@H](CCCN)C(=O)N[C@H](CC(C)C)C(=O)N[C@@H](CCN)C(=O)N[C@@H](CC2CCCCC2)C(=O)N[C@@H](C(C)C)C(=O)N[C@@H](CCC(=O)O)C(=O)N1)C(=O)O` [Compound 1826] ({CH2CO}-[Nva]Y(Carboxymethyl)D[Phe(3-Me)]Y(Carboxymethyl)[Bip]Y(Carboxymethyl)[Orn][dL][Dab][Cha]VEC[Dab][Pra]-OH; thioether N-14), with 8.40; and `C#CC[C@H](NC(=O)[C@H](CCN)NC(=O)[C@@H]1CSCC(=O)N[C@@H](CN2CCOCC2)C(=O)N[C@@H](Cc2ccc(OCC(=O)O)cc2)C(=O)N[C@@H](CC(=O)O)C(=O)N[C@@H](Cc2cccc(C)c2)C(=O)N[C@@H](Cc2ccc(OCC(=O)O)cc2)C(=O)N[C@@H](Cc2ccc(-c3ccccc3)cc2)C(=O)N[C@@H](Cc2ccc(OCC(=O)O)cc2)C(=O)N[C@@H](CCCN)C(=O)N[C@H](CC(C)C)C(=O)N[C@@H](CCN)C(=O)N[C@@H](CC2CCCCC2)C(=O)N[C@@H](C(C)C)C(=O)N[C@@H](CCC(=O)O)C(=O)N1)C(=O)O` [Compound 1827] ({CH2CO}-[Ala(morpholin-4-yl)]Y(Carboxymethyl)D[Phe(3-Me)]Y(Carboxymethyl)[Bip]Y(Carboxymethyl)[Orn][dL][Dab][Cha]VEC[Dab][Pra]-OH; thioether N-14), with 8.03; and `C#CCOc1ccc(C[C@@H]2NC(=O)[C@H](Cc3ccc(-c4ccccc4)cc3)NC(=O)[C@H](Cc3ccc(C(=O)O)cc3)NC(=O)[C@H](Cc3cccc(C)c3)NC(=O)[C@H](CC(=O)O)NC(=O)[C@H](Cc3ccc(C(=O)O)cc3)NC(=O)[C@H]([C@@H](C)O)NC(=O)CSC[C@@H](C(=O)N[C@@H](CCN)C(N)=O)NC(=O)[C@H](CCC(=O)O)NC(=O)[C@H](C(C)C)NC(=O)[C@H](CC3CCCCC3)NC(=O)[C@H](CCN)NC(=O)[C@@H](CC(C)C)NC(=O)[C@H](CCCN)NC2=O)cc1` [Compound 1828] ({CH2CO}-T[Phe(4-COOH)]D[Phe(3-Me)][Phe(4-COOH)][Bip]Y(Propargyl)[Orn][dL][Dab][Cha]VEC[Dab]-NH2; thioether N-14), with 8.16. With `C#CCOc1ccc(C[C@@H]2NC(=O)[C@H](Cc3cccc(C)c3)NC(=O)[C@H](CC(=O)O)NC(=O)[C@H](Cc3ccc(OCC(=O)O)cc3)NC(=O)[C@H]([C@@H](C)O)NC(=O)CSC[C@@H](C(=O)N[C@@H](CCN)C(N)=O)NC(=O)[C@H](CCC(=O)O)NC(=O)[C@H](C(C)C)NC(=O)[C@H](CC3CCCCC3)NC(=O)[C@H](CCN)NC(=O)[C@@H](CC(C)C)NC(=O)[C@H](CCCN)NC(=O)[C@H](Cc3ccc(OCC(=O)O)cc3)NC(=O)[C@H](Cc3ccc(-c4ccccc4)cc3)NC2=O)cc1` [Compound 1829] ({CH2CO}-TY(Carboxymethyl)D[Phe(3-Me)]Y(Propargyl)[Bip]Y(Carboxymethyl)[Orn][dL][Dab][Cha]VEC[Dab]-NH2; thioether N-14), the pIC50 was 8.62. For `C#CCOc1ccc(C[C@@H]2NC(=O)[C@H](Cc3cccc(C)c3)NC(=O)[C@H](CC(=O)O)NC(=O)[C@H](Cc3ccc(C(=O)O)cc3)NC(=O)[C@H](CCC)NC(=O)CSC[C@@H](C(=O)N[C@@H](CCN)C(N)=O)NC(=O)[C@H](CCC(=O)O)NC(=O)[C@H](C(C)C)NC(=O)[C@H](CC3CCCCC3)NC(=O)[C@H](CCN)NC(=O)[C@@H](CC(C)C)NC(=O)[C@H](CCCN)NC(=O)[C@H](Cc3ccc(C(=O)O)cc3)NC(=O)[C@H](Cc3ccc(-c4ccccc4)cc3)NC2=O)cc1` [Compound 1830] ({CH2CO}-[Nva][Phe(4-COOH)]D[Phe(3-Me)]Y(Propargyl)[Bip][Phe(4-COOH)][Orn][dL][Dab][Cha]VEC[Dab]-NH2; thioether N-14), the pIC50 is 8.44. With `C#CCOc1ccc(C[C@@H]2NC(=O)[C@H](Cc3ccc(-c4ccccc4)cc3)NC(=O)[C@H](Cc3ccc(C(=O)O)cc3)NC(=O)[C@H](Cc3cccc(C)c3)NC(=O)[C@H](CC(=O)O)NC(=O)[C@H](Cc3ccc(C(=O)O)cc3)NC(=O)[C@H](CCC)NC(=O)CSC[C@@H](C(=O)N[C@@H](CCN)C(N)=O)NC(=O)[C@H](CCC(=O)O)NC(=O)[C@H](C(C)C)NC(=O)[C@H](CC3CCCCC3)NC(=O)[C@H](CCN)NC(=O)[C@@H](CC(C)C)NC(=O)[C@H](CCCN)NC2=O)cc1` [Compound 1831] ({CH2CO}-[Nva][Phe(4-COOH)]D[Phe(3-Me)][Phe(4-COOH)][Bip]Y(Propargyl)[Orn][dL][Dab][Cha]VEC[Dab]-NH2; thioether N-14), the pIC50 is 8.32.
